In one assay the target is KRAS G12V (Homo sapiens, UniProt P01116, G12V). Briefly: GDP-GTP exchange assay (bodipy-GDP/GppNHp, SOS1), KRAS G12V. The format is biochemical. Particulars: KRAS G12V mutant; value for the most potent isomer quoted for certain compounds; read-out: G12V (KRAS G12V exchange assay IC50).
The target of the next assay is KRAS G12D (Homo sapiens, UniProt P01116, G12D). The assay can be described thus: GDP-GTP exchange assay (bodipy-GDP/GppNHp, SOS1), KRAS G12D. Particulars: bodipy-loaded KRAS G12D 2.5 nM, 4 h pre-incubation; value for the most potent isomer quoted for certain compounds; read-out: G12D (KRAS G12D exchange assay IC50). The format is biochemical.
KRAS G12D, sequence (P01116 1-188 isoform P01116-2 G12D): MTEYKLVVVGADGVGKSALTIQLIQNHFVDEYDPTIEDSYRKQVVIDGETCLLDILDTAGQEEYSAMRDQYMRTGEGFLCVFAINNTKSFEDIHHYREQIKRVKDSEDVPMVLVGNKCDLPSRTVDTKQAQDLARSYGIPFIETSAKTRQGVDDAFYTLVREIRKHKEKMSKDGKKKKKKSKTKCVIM

We go through 36 compounds from patent publication US20240390340A1 (INCYTE CORPORATION, priority 2023, published 2024).

SMILES strings stand for the structures. Bounds are passed on as bounds.

KRAS G12V, sequence (P01116 1-188 isoform P01116-2 G12V): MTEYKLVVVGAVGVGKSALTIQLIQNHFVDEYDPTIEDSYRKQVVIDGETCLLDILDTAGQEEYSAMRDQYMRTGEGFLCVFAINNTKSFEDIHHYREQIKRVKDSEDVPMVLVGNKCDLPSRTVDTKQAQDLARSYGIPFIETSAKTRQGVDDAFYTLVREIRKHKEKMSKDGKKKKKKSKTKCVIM

In the case of `Cc1nc2c(F)c(-c3cccc(Cl)c3Cl)c(CCC#N)cc2c2c1cc([C@H]1C[C@H](Oc3cnn(C(F)F)c3)[C@@H](C)N1C(=O)C1CC1)n2[C@H]1[C@H]2CN[C@@H]1C2` [Example 214], the 50% inhibitory concentration (IC50) on KRAS G12V and at KRAS G12D was at most 100 nM each time.

In the case of `N#CCCc1cc2c(nc(C3=CCOCC3)c3cc([C@H]4C[C@H](OCc5c(F)cccc5F)CN4C(=O)C4CC4)n([C@H]4[C@H]5CN[C@@H]4C5)c32)c(F)c1-c1cccc(Cl)c1Cl` [Example 218], the 50% inhibitory concentration (IC50) at KRAS G12V and on KRAS G12D was at most 100 nM throughout.

Take `CN1CC=C(c2nc3c(F)c(-c4cccc(Cl)c4Cl)c(CCC#N)cc3c3c2cc([C@H]2C[C@H](OCc4c(F)cccc4F)CN2C(=O)C2CC2)n3[C@H]2[C@H]3CN[C@@H]2C3)CC1` [Example 219]: the IC50 on KRAS G12V and at KRAS G12D was at most 100 nM in each case.

Consider `CNC(=O)c1ccc(-c2nc3c(F)c(-c4cccc(Cl)c4Cl)c(CCC#N)cc3c3c2cc([C@H]2C[C@H](OCc4c(F)cccc4F)CN2C(=O)C2CC2)n3[C@H]2[C@H]3CN[C@@H]2C3)cn1` [Example 220], for which the IC50 on KRAS G12V and on KRAS G12D was at most 100 nM in each case.

For `COc1ncccc1O[C@H]1C[C@H](c2cc3c(C(C)O)nc4c(F)c(-c5cccc(Cl)c5Cl)c(CCC#N)cc4c3n2[C@H]2[C@H]3CN[C@@H]2C3)N(C(=O)C2CC2)C1` (stereo partly drawn) [Example 221], the IC50 on KRAS G12V and at KRAS G12D was at most 100 nM in each case.

Consider `Cc1nc2c(F)c(-c3cccc(Cl)c3Cl)c(CCC#N)cc2c2c1cc([C@H]1C[C@H](Oc3cccc(C(=O)N4CCOCC4)c3)CN1C(=O)C1CC1)n2[C@H]1[C@H]2CN[C@@H]1C2` [Example 222], for which the IC50 on KRAS G12V and at KRAS G12D was at most 100 nM throughout.

For `Cc1nc2c(F)c(-c3cccc(Cl)c3Cl)c(CCC#N)cc2c2c1cc([C@H]1C[C@H](Oc3cccc(C(=O)N4CCCC4)c3)CN1C(=O)C1CC1)n2[C@H]1[C@H]2CN[C@@H]1C2` [Example 223], the IC50 at KRAS G12V and at KRAS G12D was at most 100 nM in each case.

Regarding `Cc1nc2c(F)c(-c3cccc(Cl)c3Cl)c(CCC#N)cc2c2c1cc([C@H]1C[C@H](n3cc(C4(C)CC4)nn3)CN1C(=O)C1CC1)n2[C@H]1[C@H]2CN[C@@H]1C2` [Example 224], the IC50 at KRAS G12V and on KRAS G12D was at most 100 nM in each case.

In the case of `Cc1nc2c(F)c(-c3cccc(Cl)c3Cl)c(CCC#N)cc2c2c1cc([C@H]1C[C@H](n3cc(C(C)(C)C(F)F)nn3)CN1C(=O)C1CC1)n2[C@H]1C2CNC1C2` (stereo partly drawn) [Example 225], the half-inhibitory concentration (IC50) at KRAS G12V and on KRAS G12D was at most 100 nM in each case.

For `Cc1nc2c(F)c(-c3cccc(Cl)c3Cl)c(CCC#N)cc2c2c1cc([C@H]1C[C@H](OC(C)c3ccccn3)CN1C(=O)C1CC1)n2[C@H]1[C@H]2CN[C@@H]1C2` (stereo partly drawn) [Example 226], the IC50 on KRAS G12V and on KRAS G12D was at most 100 nM each time.

In the case of `Cc1nc2c(F)c(-c3cccc(Cl)c3Cl)c(CCC#N)cc2c2c1cc([C@H]1C[C@H](OC(C)c3c(F)cccc3F)CN1C(=O)C1CC1)n2[C@H]1[C@H]2CN[C@@H]1C2` (stereo partly drawn) [Example 227], the 50% inhibitory concentration (IC50) on KRAS G12V and at KRAS G12D was at most 100 nM in each case.

On to `Cc1nc2c(F)c(-c3cccc(Cl)c3Cl)c(CCC#N)cc2c2c1cc([C@H]1C[C@H](OC(C)c3ncco3)CN1C(=O)C1CC1)n2[C@H]1[C@H]2CN[C@@H]1C2` (stereo partly drawn) [Example 228], for which the half-inhibitory concentration (IC50) at KRAS G12V and at KRAS G12D was at most 100 nM throughout.

Take `[2H]C([2H])(O[C@H]1C[C@H](c2cc3c(C)nc4c(F)c(-c5cccc(Cl)c5Cl)c(CCC#N)cc4c3n2[C@H]2[C@H]3CN[C@@H]2C3)N(C(=O)C2CC2)C1)c1cc(C)sn1` [Example 229]: the IC50 on KRAS G12V and on KRAS G12D was at most 100 nM in each case.

On to `Cc1nc2c(F)c(-c3cccc(Cl)c3Cl)c(CCC#N)cc2c2c1cc([C@H]1C[C@H](OC3CC3)CN1C(=O)C1CC1)n2[C@H]1[C@H]2CN[C@@H]1C2` [Example 230], for which the IC50 at KRAS G12V and at KRAS G12D was at most 100 nM in each case.

`CCn1cc(CO[C@H]2C[C@H](c3cc4c(C)nc5c(F)c(-c6cccc(Cl)c6Cl)c(CCC#N)cc5c4n3[C@H]3[C@H]4CN[C@@H]3C4)N(C(=O)C3CC3)C2)nn1` [Example 231]: the 50% inhibitory concentration (IC50) at KRAS G12V and at KRAS G12D was at most 100 nM throughout.

In the case of `Cc1csnc1CO[C@H]1C[C@H](c2cc3c(C)nc4c(F)c(-c5cccc(Cl)c5Cl)c(CCC#N)cc4c3n2[C@H]2[C@H]3CN[C@@H]2C3)N(C(=O)C2CC2)[C@@H]1C` [Example 232], the concentration for half-maximal inhibition (IC50) at KRAS G12V and on KRAS G12D was at most 100 nM throughout.

`[2H]C([2H])(O[C@H]1C[C@H](c2cc3c(C)nc4c(F)c(-c5cccc(Cl)c5Cl)c(CCC#N)cc4c3n2[C@H]2[C@H]3CN[C@@H]2C3)N(C(=O)C2CC2)C1)c1nscc1C` [Example 233]: the concentration for half-maximal inhibition (IC50) on KRAS G12V and on KRAS G12D was at most 100 nM each time.

With `Cc1nc2c(F)c(-c3cccc(Cl)c3Cl)c(CCC#N)cc2c2c1cc([C@H]1C[C@H](OCc3nnn(C)c3C)CN1C(=O)C1CC1)n2[C@H]1[C@H]2CN[C@@H]1C2` [Example 234], the 50% inhibitory concentration (IC50) at KRAS G12V and on KRAS G12D was at most 100 nM in each case.

`Cc1nc2c(F)c(-c3cccc(Cl)c3Cl)c(CCC#N)cc2c2c1cc([C@H]1C[C@H](OCc3cn(C4CC4)nn3)CN1C(=O)C1CC1)n2[C@H]1[C@H]2CN[C@@H]1C2` [Example 235]: the IC50 at KRAS G12V and on KRAS G12D was at most 100 nM each time.

With `CN1CCC(c2nc3c(F)c(-c4cccc(Cl)c4Cl)c(CCC#N)cc3c3c2cc([C@H]2C[C@H](OCc4c(F)cccc4F)CN2C(=O)C2CC2)n3[C@H]2[C@H]3CN[C@@H]2C3)CC1` [Example 236], the IC50 on KRAS G12V and on KRAS G12D was at most 100 nM throughout.

In the case of `[2H]C([2H])(O[C@H]1C[C@H](c2cc3c(C(C)O)nc4c(F)c(-c5cccc(Cl)c5Cl)c(CCC#N)cc4c3n2[C@H]2[C@H]3CN[C@@H]2C3)N(C(=O)C2CC2)C1)c1nscc1C` (stereo partly drawn) [Example 237], the IC50 at KRAS G12V and on KRAS G12D was at most 100 nM each time.

Consider `Cc1nc2c(F)c(-c3cccc(Cl)c3Cl)c(CCC#N)cc2c2c1cc([C@H]1C[C@H](OC3CCCC3)CN1C(=O)C1CC1)n2[C@H]1[C@H]2CN[C@@H]1C2` [Example 238], for which the IC50 on KRAS G12V and on KRAS G12D was at most 100 nM throughout.

On to `N#CCCc1cc2c(nc(C3CCNC3)c3cc([C@H]4C[C@H](OCc5c(F)cccc5F)CN4C(=O)C4CC4)n([C@H]4[C@H]5CN[C@@H]4C5)c32)c(F)c1-c1cccc(Cl)c1Cl` (stereo partly drawn) [Example 239], for which the IC50 at KRAS G12V and at KRAS G12D was at most 100 nM in each case.

Turning to `N#CCCc1cc2c(nc(C3=CCS(=O)(=O)CC3)c3cc([C@H]4C[C@H](OCc5c(F)cccc5F)CN4C(=O)C4CC4)n([C@H]4[C@H]5CN[C@@H]4C5)c32)c(F)c1-c1cccc(Cl)c1Cl` [Example 240], the figures for the IC50 at KRAS G12V and on KRAS G12D were at most 100 nM and 100 to 1000 nM, respectively.

For the compound `[2H]C([2H])(O[C@H]1C[C@H](c2cc3c(C)nc4c(F)c(-c5cccc(Cl)c5Cl)c(CCC#N)cc4c3n2[C@H]2[C@H]3CN[C@@H]2C3)N(C(=O)C2CC2)[C@@H]1C)c1cc(C)sn1` [Example 241], the concentration for half-maximal inhibition (IC50) at KRAS G12V and on KRAS G12D was at most 100 nM throughout.

Regarding `[2H]C([2H])(O[C@H]1C[C@H](c2cc3c(C)nc4c(F)c(-c5cccc(Cl)c5Cl)c(CCC#N)cc4c3n2[C@H]2[C@H]3CN[C@@H]2C3)N(C(=O)C2CC2)[C@@H]1C)c1nscc1C` [Example 242], the IC50 at KRAS G12V and on KRAS G12D was at most 100 nM throughout.

For the compound `Cc1nc2c(F)c(-c3cccc(Cl)c3Cl)c(CCC#N)cc2c2c1cc([C@H]1C[C@H](OCc3ccccn3)[C@@H](C)N1C(=O)C1CC1)n2[C@H]1[C@H]2CN[C@@H]1C2` [Example 243], the IC50 at KRAS G12V and on KRAS G12D was at most 100 nM each time.

On to `Cc1nc2c(F)c(-c3cccc(Cl)c3Cl)c(CCC#N)cc2c2c1cc([C@H]1C[C@H](O[C@H](C)c3ccccn3)[C@@H](C)N1C(=O)C1CC1)n2[C@H]1[C@H]2CN[C@@H]1C2` [Example 244], for which the IC50 at KRAS G12V and at KRAS G12D was at most 100 nM in each case.

Consider `Cc1nc2c(F)c(-c3cccc(Cl)c3Cl)c(CCC#N)cc2c2c1cc([C@H]1C[C@H](O[C@@H](C)c3ccccn3)[C@@H](C)N1C(=O)C1CC1)n2[C@H]1[C@H]2CN[C@@H]1C2` [Example 245], for which the half-inhibitory concentration (IC50) at KRAS G12V and at KRAS G12D was at most 100 nM in each case.

On to `N#CCCc1cc2c(nc(C3CC4CCCC3N4)c3cc([C@H]4C[C@H](OCc5c(F)cccc5F)CN4C(=O)C4CC4)n([C@H]4[C@H]5CN[C@@H]4C5)c32)c(F)c1-c1cccc(Cl)c1Cl` (stereo partly drawn) [Example 246], for which the 50% inhibitory concentration (IC50) (in general, the midpoint of a concentration-inhibition curve) at KRAS G12V is at most 100 nM; on KRAS G12D it was 100 to 1000 nM.

In the case of `COc1ccnc(O[C@H]2C[C@H](c3cc4c(C)nc5c(F)c(-c6cccc(Cl)c6Cl)c(CCC#N)cc5c4n3[C@H]3[C@H]4CN[C@@H]3C4)N(C(=O)C3CC3)C2)n1` [Example 247], the half-maximal inhibitory concentration (IC50) at KRAS G12V and at KRAS G12D was at most 100 nM throughout.

Regarding `Cc1nc2c(F)c(-c3cccc(Cl)c3Cl)c(CCC#N)cc2c2c1cc([C@H]1C[C@H](Oc3ccccc3OC(F)F)CN1C(=O)C1CC1)n2[C@H]1[C@H]2CN[C@@H]1C2` [Example 248], the concentration for half-maximal inhibition (IC50) on KRAS G12V and on KRAS G12D was at most 100 nM each time.

Turning to `Cc1nc2c(F)c(-c3cccc(Cl)c3Cl)c(CCC#N)cc2c2c1cc([C@H]1C[C@H](Oc3ccccc3C#N)CN1C(=O)C1CC1)n2[C@H]1[C@H]2CN[C@@H]1C2` [Example 249], the 50% inhibitory concentration (IC50) at KRAS G12V and on KRAS G12D was at most 100 nM in each case.

Turning to `COc1ccccc1O[C@H]1C[C@H](c2cc3c(C)nc4c(F)c(-c5cccc(Cl)c5Cl)c(CCC#N)cc4c3n2[C@H]2[C@H]3CN[C@@H]2C3)N(C(=O)C2CC2)C1` [Example 250], the 50% inhibitory concentration (IC50) at KRAS G12V and at KRAS G12D was at most 100 nM each time.

Consider `Cc1nc2c(F)c(-c3cccc(Cl)c3Cl)c(CCC#N)cc2c2c1cc([C@H]1C[C@H](OCc3ccc(F)cc3)CN1C(=O)C1CC1)n2[C@H]1[C@H]2CN[C@@H]1C2` [Example 251], for which the IC50 on KRAS G12V and on KRAS G12D was at most 100 nM throughout.

Take `COc1ccc(CO[C@H]2C[C@H](c3cc4c(C)nc5c(F)c(-c6cccc(Cl)c6Cl)c(CCC#N)cc5c4n3[C@H]3[C@H]4CN[C@@H]3C4)N(C(=O)C3CC3)C2)c(C#N)c1` [Example 252]: the IC50 on KRAS G12V and at KRAS G12D was at most 100 nM throughout.
